Here are results for 34 compounds from patent US11541050B2, “Pyrimidine derivatives for the treatment of viral infections” (JANSSEN SCIENCES IRELAND UC, priority 2011, dated 2023).

The structures appear in SMILES notation.

Common to all, as to type: cell-based
Set-up in all cases: unit not given here

Experiment [1] concerns the target T1, human TLR7 (wild type sequence) (Homo sapiens, UniProt Q9NYK1).
T1 construct: expressed in transfected cells; host or cells: HEK293
T1 sequence (Q9NYK1 27-1049): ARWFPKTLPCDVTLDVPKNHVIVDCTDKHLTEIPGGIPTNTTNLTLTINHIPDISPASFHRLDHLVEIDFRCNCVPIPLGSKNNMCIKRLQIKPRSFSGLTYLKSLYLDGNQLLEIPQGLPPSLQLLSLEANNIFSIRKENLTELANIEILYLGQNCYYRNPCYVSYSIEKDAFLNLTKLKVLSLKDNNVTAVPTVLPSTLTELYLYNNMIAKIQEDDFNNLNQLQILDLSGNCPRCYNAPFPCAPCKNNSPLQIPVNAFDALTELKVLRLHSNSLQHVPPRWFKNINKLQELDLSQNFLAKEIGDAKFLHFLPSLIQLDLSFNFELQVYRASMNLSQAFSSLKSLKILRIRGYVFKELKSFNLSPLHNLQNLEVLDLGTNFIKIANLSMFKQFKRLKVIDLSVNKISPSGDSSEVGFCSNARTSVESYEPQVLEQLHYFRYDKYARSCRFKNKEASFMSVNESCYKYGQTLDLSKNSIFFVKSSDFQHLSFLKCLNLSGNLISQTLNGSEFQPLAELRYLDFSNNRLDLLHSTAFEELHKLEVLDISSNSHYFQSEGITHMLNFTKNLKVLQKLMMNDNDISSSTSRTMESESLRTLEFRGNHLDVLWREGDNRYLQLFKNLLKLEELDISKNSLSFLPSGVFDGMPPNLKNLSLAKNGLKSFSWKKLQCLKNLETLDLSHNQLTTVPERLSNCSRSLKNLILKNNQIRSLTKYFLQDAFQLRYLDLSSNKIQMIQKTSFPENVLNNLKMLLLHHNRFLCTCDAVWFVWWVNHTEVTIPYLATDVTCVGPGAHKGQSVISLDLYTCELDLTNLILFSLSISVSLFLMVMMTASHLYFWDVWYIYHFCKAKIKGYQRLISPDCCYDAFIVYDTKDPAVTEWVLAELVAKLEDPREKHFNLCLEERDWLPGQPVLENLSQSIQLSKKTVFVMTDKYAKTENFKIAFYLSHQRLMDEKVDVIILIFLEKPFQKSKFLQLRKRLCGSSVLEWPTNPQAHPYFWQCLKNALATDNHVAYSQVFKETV
Nature of the experiment: TLR7 cellular NFκB-luc reporter assay, wild type TLR7. The conditions noted are these: lowest effective concentration, wild type TLR7. The essentials:
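Transfected HEK293 cells expressing wild type or second leucine-rich repeat-deleted TLR7 or TLR8 together with an NFκB-luciferase reporter are treated with compound for 6 hours. Activation is measured by luciferase, and LEC is the lowest concentration exceeding the assay standard deviation at least two fold.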
(In general: A reporter such as luciferase makes a cellular process visible.)

For experiment [2], the system named is human TLR7 mutant sequence comprising a deletion in the second leucine-rich repeat. In words: TLR7 cellular NFκB-luc reporter assay, mutant TLR7 with deletion in the second leucine-rich repeat. The conditions noted are these: lowest effective concentration. Here is the method: (§1) The ability of compounds to activate human TLR7 and/or TLR8 was assessed in a cellular reporter assay using HEK293 cells transiently transfected with a TLR7 or TLR8 expression vector and NFκB-luc reporter construct. In one instance the TLR expression construct expresses the respective wild type sequence or a mutant sequence comprising a deletion in the second leucine-rich repeat of the TLR.
(§2) Briefly, HEK293 cells were grown in culture medium (DMEM supplemented with 10% FCS and 2 mM Glutamine). For transfection of cells in 10 cm dishes, cells were detached with Trypsin-EDTA, transfected with a mix of CMV-TLR7 or TLR8 plasmid (750 ng), NFκB-luc plasmid (375 ng) and a transfection reagent and incubated for 48 hours at 37° C. in a humidified 5% CO2 atmosphere. […] Thirty microliters of cells were then dispensed into each well in 384-well plates, where 10 μL of compound in 4% DMSO was already present. Following 6 hours incubation at 37° C., 5% CO2, the luciferase activity was determined by adding 15 μl of Steady Lite Plus substrate (Perkin Elmer) to each well and readout performed on a ViewLux ultraHTS microplate imager (Perkin Elmer). Dose response curves were generated from measurements performed in quadruplicates.

Experiment [3] has as its system human TLR8 mutant sequence comprising a deletion in the second leucine-rich repeat. In words: TLR8 cellular NFκB-luc reporter assay, mutant TLR8 with deletion in the second leucine-rich repeat. The following applies: lowest effective concentration. The method, then:
as §1, §2

In experiment [1], `CCC[C@@H](CO)Nc1nc(N)ncc1OCc1cc2ccccc2cn1` [Compound 258] gave a TLR7-wt_LEC of 0.074. Besides, in experiment [2], the TLR7-dIRR2_LEC was 0.153. The same compound had a TLR8-dIRR2_LEC in experiment [3] of 0.060.
The like results for `CCC[C@@H](CCO)Nc1nc(N)ncc1OCc1nccc2ccccc12` [Compound 231] were, in that order, 0.001, 0.052 and <0.001.
For `CCC[C@@H](CO)Nc1nc(N)ncc1OCc1cc(C)n(C)n1` [Compound 257] the same measures were 0.697, 0.444 and 0.304.
For `CCCCNc1nc(N)ncc1OCC(C)O` (stereo not drawn) [Compound 290] the same measures were >25, 9.110 and 12.460.
As for `CCC[C@@H](CO)Nc1nc(N)ncc1OCc1cccc(C(N)=O)n1` [Compound 256], the TLR7-wt_LEC in experiment [1] is 1.630. The TLR7-dIRR2_LEC in experiment [2] was 0.100. The compound further displayed a TLR8-dIRR2_LEC in experiment [3] of 0.039.
The like results for `CCCC[C@@H](C[C@@H](C)O)Nc1nc(N)ncc1OC` [Compound 300] were, in that order, 1.740, 0.720 and 0.475.
The like results for `CCCC[C@@H](CCO)Nc1nc(N)ncc1OCc1cccc(C)n1` [Compound 295] were, in that order, 0.047, 0.430 and 0.034.
The like results for `CCC[C@@H](CO)Nc1nc(N)ncc1OCc1cc(C)nn1C` [Compound 254] were, in that order, 1.770, 0.467 and 0.364.
Take `CCCCNc1nc(N)ncc1OCc1ccc2cccnc2n1` [Compound 236]: in experiment [1], the TLR7-wt_LEC worked out at 0.241. In experiment [2], the TLR7-dIRR2_LEC is reported as 0.333. The compound further gave a TLR8-dIRR2_LEC in experiment [3] of 0.031.
The like results for `CCC[C@H](C)Nc1nc(N)ncc1OCc1nccc(OC)c1OC` [Compound 263] were, in that order, 0.049, 0.159 and 0.056.
The like results for `CCC[C@@H](CCO)Nc1nc(N)ncc1OCc1cccnn1` [Compound 279] were, in that order, 0.724, 1.100 and 0.034.
For `CCCCNc1nc(N)ncc1OCCN(Cc1ccccc1)C(=O)OCC` [Compound 230] the same measures were 0.593, 3.470 and 0.138.
Compound `CCCC[C@@H](CO)Nc1nc(N)ncc1OCc1cc(C)n(C)n1` [Compound 255] gave a TLR7-wt_LEC in experiment [1] of 0.552. The compound further returned a TLR7-dIRR2_LEC in experiment [2] of 0.515. In experiment [3], this compound yielded a TLR8-dIRR2_LEC of 0.315.
The like results for `CCCC(C)Nc1nc(N)ncc1OCCCc1ccc2c(c1)OCO2` (stereo not drawn) [Compound 265] were, in that order, 0.752, 3.700 and 0.591.
The like results for `CCC[C@@H](CCO)Nc1cc(O[C@@H]2CCc3c(Cl)ccnc32)nc(N)n1` [Compound 283] were, in that order, 17.180, 8.320 and 4.350.
With `CCCC[C@@H](CCO)Nc1nc(N)ncc1OCc1cc(C)n(C)n1` [Compound 237], in experiment [1], the TLR7-wt_LEC was found to be 0.156. This compound had a TLR7-dIRR2_LEC in experiment [2] of 1.830. The compound also had a TLR8-dIRR2_LEC in experiment [3] of 0.051.
For `CCCCNc1nc(N)ncc1OCC1CCOC1` (stereo not drawn) [Compound 235] the same measures were >25, 10.410 and 1.890.
Consider `CCC[C@@H](CCO)Nc1nc(N)ncc1OCc1cccnc1` [Compound 271], for which the TLR7-wt_LEC in experiment [1] is listed as 0.261. In experiment [2], this compound yielded a TLR7-dIRR2_LEC of 0.511. In experiment [3], the TLR8-dIRR2_LEC worked out at 0.088.
For `CCC[C@@H](CCO)Nc1nc(N)ncc1OCCCc1ccc(OC)cc1` [Compound 226] the same measures were 0.274, 1.050 and 0.036.
For `CCCCNc1nc(N)ncc1OC[C@H](C)OC` [Compound 287] the same measures were 15.530, 5.380 and 3.560.
The like results for `CCCC[C@@H](CCO)Nc1nc(N)ncc1OCc1ccncc1` [Compound 291] were, in that order, 0.120, 0.407 and 0.106.
Regarding `CCC[C@@H](C)Nc1nc(N)ncc1OCc1nccc(OC)c1OC` [Compound 252], the TLR7-wt_LEC in experiment [1] is 4.020. Further, the TLR7-dIRR2_LEC in experiment [2] is >25. This compound registered a TLR8-dIRR2_LEC in experiment [3] of 1.310.
For `CCC[C@@H](CCO)Nc1nc(N)ncc1OCc1cccc(C)n1` [Compound 227] the same measures were 0.170, 0.717 and 0.030.
For `CCC[C@@H](CO)Nc1nc(N)ncc1OCc1ccccn1` [Compound 239] the same measures were 0.464, 0.247 and 0.145.
Consider `CCCCNc1nc(N)ncc1OCCCC(=O)OC` [Compound 220], for which, in experiment [1], the TLR7-wt_LEC is 1.940. The TLR7-dIRR2_LEC in experiment [2] is recorded as 1.450. Also, the TLR8-dIRR2_LEC in experiment [3] was 1.720.
The compound `CCC[C@@H](CCO)Nc1nc(N)ncc1OCCCc1ccc2c(c1)OCO2` [Compound 238] came in with a TLR7-wt_LEC in experiment [1] of 0.234. In addition, in experiment [2], the TLR7-dIRR2_LEC amounted to 1.920. This compound also had a TLR8-dIRR2_LEC in experiment [3] of 0.091.
The like results for `CCCC[C@@H](CO)Nc1nc(N)ncc1OCc1cccnn1` [Compound 278] were, in that order, 0.880, 0.270 and 0.136.
For `CCC[C@@H](CCO)Nc1nc(N)ncc1OCc1ccncc1` [Compound 302], the TLR7-wt_LEC in experiment [1] is reported as 0.385. The TLR7-dIRR2_LEC in experiment [2] was 0.487. The compound further showed a TLR8-dIRR2_LEC in experiment [3] of 0.070.
`CCCC[C@@H](CO)Nc1nc(N)ncc1OCc1cn2ccccc2n1` [Compound 218] had a TLR7-wt_LEC in experiment [1] of 0.154. For the same compound, in experiment [2], the TLR7-dIRR2_LEC turned out to be 0.352. The compound further registered a TLR8-dIRR2_LEC in experiment [3] of 0.032.
In experiment [1], `CCCC[C@@H](CCO)Nc1nc(N)ncc1OCc1c[nH]nn1` [Compound 298] registered a TLR7-wt_LEC of 0.394. Further, in experiment [2], the TLR7-dIRR2_LEC is reported as 2.840. For the same compound, the TLR8-dIRR2_LEC in experiment [3] worked out at 0.058.
The like results for `CCCC[C@@H](CCOC(=O)C(C)C)Nc1nc(N)ncc1OC` [Compound 250] were, in that order, 0.724, 3.250 and 0.580.
On to `CCC[C@@H](CCO)Nc1nc(N)ncc1OCc1cc(C)n(C)n1` [Compound 246], for which the TLR7-wt_LEC in experiment [1] amounted to 0.157. In addition, the TLR7-dIRR2_LEC in experiment [2] worked out at 1.150. The compound also displayed a TLR8-dIRR2_LEC in experiment [3] of 0.048.
The like results for `CCC[C@@H](C)Nc1nc(N)ncc1OCc1cn2ccccc2n1` [Compound 253] were, in that order, 12.760, >25 and 6.230.
For the compound `CCCCNc1nc(N)ncc1OCCOC(C)C` [Compound 234], the TLR7-wt_LEC in experiment [1] stood at 1.850. This compound also yielded a TLR7-dIRR2_LEC in experiment [2] of 1.170. In experiment [3], the TLR8-dIRR2_LEC stood at 0.464.
